Measurements taken from article PMC11997881, “Comprehensive Characterization of Bruton’s Tyrosine Kinase Inhibitor Specificity, Potency, and Biological Effects: Insights into Covalent and Noncovalent Mechanistic Signatures” (ACS Pharmacology & Translational Science, 2025).

Key:
TEC = target: T1, TEC (Homo sapiens, UniProt P42680); assay: scanMAX binding POC, TEC; conditions: 1 μM
T1 sequence (P42680 1-631): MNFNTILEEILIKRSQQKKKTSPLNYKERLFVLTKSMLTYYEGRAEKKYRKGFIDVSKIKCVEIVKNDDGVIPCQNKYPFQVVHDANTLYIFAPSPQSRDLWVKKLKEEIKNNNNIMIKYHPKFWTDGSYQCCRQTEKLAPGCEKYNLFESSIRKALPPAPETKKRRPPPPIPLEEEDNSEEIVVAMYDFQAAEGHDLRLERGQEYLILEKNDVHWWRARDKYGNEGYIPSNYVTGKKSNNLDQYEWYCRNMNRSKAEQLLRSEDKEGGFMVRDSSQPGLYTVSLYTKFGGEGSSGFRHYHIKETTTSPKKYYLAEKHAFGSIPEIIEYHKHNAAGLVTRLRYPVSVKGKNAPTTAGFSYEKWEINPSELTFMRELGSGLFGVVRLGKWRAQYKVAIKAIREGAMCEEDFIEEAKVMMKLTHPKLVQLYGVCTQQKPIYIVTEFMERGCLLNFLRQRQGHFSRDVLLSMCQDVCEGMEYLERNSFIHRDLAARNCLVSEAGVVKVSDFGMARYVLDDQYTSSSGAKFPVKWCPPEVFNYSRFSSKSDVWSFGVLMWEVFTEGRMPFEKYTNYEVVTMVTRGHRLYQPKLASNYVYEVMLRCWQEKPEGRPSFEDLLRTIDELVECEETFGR
From the text: (§1) Comprehensive Characterization of Bruton’s Tyrosine Kinase Inhibitor Specificity, Potency, and
(§2) Biological Effects: Insights into Covalent and Non-Covalent Mechanistic Signatures
(§3) Antonia C. Darragh1, Andrew M. Hanna1, Justin H. Lipner2, Alastair J. King2, Nicole B. Servant1, Mirza Jahic1*
(§4) *To whom correspondence should be addressed: Mirza Jahic, e-mail address: Mirza.Jahic@discovery.eurofinsus.com
(§5) Supporting Table S1. Comparison of BTK inhibitor specificity to TEC family members. TEC family members are
(§6) Burton’s tyrosine kinase (BTK), tyrosine kinase expressed in hepatocellular carcinoma (TEC), bone marrow-
(§7) expressed kinase (BMX/ETK), and T cell-expressed kinase (TXK/RLK), and interleukin-2-inducible T cell kinase
(§8) A zero POC signifies that the compound

TXK = target: T2, TXK (Homo sapiens, UniProt P42681); assay: scanMAX binding POC, TXK; conditions: 1 μM
T2 sequence (P42681 1-527): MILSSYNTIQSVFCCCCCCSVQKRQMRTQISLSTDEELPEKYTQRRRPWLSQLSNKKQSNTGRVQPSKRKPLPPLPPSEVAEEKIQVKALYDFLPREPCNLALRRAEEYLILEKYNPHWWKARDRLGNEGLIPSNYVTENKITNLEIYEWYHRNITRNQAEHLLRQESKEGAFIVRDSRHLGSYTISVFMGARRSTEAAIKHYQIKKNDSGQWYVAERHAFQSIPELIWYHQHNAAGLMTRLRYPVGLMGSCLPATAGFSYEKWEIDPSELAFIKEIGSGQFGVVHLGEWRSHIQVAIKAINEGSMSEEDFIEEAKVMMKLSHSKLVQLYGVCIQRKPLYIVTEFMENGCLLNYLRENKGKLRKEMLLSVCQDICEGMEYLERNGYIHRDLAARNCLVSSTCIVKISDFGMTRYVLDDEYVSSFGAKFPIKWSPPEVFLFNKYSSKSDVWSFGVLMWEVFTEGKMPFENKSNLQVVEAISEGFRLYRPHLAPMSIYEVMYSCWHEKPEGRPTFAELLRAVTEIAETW
From the text: as §1, §2, §3, §4, §5, §6, §7, §8

ITK = target: T3, ITK (Homo sapiens, UniProt Q08881); assay: scanMAX binding POC, ITK; conditions: 1 μM
T3 sequence (Q08881 1-620): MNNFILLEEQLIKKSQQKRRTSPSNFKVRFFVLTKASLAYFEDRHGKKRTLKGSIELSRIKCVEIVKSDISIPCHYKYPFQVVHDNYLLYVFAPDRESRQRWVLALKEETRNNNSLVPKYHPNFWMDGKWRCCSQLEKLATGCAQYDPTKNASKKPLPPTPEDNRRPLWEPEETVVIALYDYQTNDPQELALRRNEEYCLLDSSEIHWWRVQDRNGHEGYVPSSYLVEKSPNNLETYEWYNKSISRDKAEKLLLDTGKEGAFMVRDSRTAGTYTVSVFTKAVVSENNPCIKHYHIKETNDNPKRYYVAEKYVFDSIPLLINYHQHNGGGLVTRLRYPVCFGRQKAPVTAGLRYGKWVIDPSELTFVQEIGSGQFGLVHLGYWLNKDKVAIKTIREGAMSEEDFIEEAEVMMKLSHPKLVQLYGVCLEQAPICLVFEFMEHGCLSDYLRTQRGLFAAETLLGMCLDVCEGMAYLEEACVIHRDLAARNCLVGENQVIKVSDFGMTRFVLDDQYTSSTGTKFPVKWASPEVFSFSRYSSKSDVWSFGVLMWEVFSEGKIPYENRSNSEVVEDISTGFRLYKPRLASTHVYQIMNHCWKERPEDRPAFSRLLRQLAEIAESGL
From the text: as §1, §2, §3, §4, §5, §6, §7, §8

BLK = BLK (Homo sapiens, UniProt P51451); assay: scanMAX binding POC, BLK; conditions: 1 μM
Chain of BLK (P51451 whole entry): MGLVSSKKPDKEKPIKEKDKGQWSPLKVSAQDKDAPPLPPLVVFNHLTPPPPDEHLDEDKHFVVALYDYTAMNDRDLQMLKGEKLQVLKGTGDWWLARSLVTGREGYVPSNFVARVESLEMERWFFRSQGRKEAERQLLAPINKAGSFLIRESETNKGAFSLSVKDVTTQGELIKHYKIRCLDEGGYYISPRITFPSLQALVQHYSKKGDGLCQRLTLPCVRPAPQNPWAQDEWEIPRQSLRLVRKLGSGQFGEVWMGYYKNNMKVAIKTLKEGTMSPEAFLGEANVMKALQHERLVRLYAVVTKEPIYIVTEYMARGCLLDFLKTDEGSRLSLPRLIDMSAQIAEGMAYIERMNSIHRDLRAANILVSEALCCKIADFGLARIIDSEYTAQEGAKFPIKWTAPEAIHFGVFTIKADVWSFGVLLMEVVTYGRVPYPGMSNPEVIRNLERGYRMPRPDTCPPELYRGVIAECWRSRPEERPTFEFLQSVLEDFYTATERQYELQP

EGFR = EGFR (Homo sapiens, UniProt P00533); assay: scanMAX binding POC, EGFR; conditions: 1 μM
Chain of EGFR (P00533 25-1210): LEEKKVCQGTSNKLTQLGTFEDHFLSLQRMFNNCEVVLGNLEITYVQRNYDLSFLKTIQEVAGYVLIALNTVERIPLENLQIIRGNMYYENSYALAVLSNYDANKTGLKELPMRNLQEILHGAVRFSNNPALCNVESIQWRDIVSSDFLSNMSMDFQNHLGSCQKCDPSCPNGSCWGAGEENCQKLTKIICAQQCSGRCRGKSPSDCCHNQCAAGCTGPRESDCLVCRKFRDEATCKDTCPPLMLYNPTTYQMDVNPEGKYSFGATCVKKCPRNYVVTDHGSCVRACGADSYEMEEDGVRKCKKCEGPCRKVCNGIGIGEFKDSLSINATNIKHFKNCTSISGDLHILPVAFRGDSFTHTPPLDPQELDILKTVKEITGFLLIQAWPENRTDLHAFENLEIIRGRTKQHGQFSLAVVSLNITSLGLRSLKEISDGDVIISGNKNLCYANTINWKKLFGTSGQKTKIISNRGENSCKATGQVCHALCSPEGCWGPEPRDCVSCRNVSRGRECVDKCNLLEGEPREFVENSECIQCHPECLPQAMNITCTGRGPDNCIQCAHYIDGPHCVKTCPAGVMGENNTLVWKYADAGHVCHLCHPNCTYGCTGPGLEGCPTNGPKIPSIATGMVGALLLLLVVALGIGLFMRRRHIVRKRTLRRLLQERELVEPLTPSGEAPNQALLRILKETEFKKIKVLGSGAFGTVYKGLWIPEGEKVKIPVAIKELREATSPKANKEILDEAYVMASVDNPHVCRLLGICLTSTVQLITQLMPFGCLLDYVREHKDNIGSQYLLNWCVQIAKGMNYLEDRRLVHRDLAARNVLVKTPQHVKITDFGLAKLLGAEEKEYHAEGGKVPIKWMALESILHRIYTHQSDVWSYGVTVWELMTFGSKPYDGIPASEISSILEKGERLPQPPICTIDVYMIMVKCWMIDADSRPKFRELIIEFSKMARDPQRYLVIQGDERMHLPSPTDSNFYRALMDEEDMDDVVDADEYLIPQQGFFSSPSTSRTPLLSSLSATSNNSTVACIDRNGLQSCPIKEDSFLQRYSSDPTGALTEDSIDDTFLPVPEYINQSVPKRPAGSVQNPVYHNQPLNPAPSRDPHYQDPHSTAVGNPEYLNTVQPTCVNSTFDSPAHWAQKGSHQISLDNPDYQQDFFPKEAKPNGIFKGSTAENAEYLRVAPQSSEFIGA

ERBB2 = ERBB2 (Homo sapiens, UniProt P04626); assay: scanMAX binding POC, ERBB2; conditions: 1 μM
Chain of ERBB2 (P04626 23-1255): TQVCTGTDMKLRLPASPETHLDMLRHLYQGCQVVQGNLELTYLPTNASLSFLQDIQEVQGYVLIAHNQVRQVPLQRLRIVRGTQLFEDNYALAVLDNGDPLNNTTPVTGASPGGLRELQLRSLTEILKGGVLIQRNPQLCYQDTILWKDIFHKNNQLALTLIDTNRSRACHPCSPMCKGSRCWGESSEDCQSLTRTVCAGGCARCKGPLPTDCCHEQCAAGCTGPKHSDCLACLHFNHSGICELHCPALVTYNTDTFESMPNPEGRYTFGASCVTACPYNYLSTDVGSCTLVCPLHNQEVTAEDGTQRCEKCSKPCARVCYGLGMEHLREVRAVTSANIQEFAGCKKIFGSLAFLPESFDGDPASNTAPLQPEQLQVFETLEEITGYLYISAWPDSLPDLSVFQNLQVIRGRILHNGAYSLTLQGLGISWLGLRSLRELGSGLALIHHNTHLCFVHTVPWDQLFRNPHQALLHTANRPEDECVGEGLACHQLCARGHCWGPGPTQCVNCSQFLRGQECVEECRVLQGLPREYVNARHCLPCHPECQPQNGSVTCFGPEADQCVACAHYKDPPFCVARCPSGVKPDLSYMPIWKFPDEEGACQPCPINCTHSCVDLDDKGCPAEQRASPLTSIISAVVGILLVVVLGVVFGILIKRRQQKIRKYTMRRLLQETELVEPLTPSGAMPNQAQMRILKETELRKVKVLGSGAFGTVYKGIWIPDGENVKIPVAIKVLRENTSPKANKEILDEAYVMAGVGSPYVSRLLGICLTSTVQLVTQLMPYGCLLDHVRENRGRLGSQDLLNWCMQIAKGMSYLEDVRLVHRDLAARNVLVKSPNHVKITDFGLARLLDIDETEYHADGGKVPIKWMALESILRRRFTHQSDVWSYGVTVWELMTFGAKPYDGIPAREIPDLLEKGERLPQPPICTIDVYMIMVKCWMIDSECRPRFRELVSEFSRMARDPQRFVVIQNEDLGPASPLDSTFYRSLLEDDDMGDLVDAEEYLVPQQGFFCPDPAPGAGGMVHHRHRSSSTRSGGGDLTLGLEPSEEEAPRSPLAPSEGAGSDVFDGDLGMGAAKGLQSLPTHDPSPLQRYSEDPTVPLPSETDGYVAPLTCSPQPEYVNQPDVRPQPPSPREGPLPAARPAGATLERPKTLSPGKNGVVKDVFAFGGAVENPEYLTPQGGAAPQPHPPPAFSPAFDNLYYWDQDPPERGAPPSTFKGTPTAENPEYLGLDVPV

ERBB4 = ERBB4 (Homo sapiens, UniProt Q15303); assay: scanMAX binding POC, ERBB4; conditions: 1 μM
Chain of ERBB4 (Q15303 26-1308): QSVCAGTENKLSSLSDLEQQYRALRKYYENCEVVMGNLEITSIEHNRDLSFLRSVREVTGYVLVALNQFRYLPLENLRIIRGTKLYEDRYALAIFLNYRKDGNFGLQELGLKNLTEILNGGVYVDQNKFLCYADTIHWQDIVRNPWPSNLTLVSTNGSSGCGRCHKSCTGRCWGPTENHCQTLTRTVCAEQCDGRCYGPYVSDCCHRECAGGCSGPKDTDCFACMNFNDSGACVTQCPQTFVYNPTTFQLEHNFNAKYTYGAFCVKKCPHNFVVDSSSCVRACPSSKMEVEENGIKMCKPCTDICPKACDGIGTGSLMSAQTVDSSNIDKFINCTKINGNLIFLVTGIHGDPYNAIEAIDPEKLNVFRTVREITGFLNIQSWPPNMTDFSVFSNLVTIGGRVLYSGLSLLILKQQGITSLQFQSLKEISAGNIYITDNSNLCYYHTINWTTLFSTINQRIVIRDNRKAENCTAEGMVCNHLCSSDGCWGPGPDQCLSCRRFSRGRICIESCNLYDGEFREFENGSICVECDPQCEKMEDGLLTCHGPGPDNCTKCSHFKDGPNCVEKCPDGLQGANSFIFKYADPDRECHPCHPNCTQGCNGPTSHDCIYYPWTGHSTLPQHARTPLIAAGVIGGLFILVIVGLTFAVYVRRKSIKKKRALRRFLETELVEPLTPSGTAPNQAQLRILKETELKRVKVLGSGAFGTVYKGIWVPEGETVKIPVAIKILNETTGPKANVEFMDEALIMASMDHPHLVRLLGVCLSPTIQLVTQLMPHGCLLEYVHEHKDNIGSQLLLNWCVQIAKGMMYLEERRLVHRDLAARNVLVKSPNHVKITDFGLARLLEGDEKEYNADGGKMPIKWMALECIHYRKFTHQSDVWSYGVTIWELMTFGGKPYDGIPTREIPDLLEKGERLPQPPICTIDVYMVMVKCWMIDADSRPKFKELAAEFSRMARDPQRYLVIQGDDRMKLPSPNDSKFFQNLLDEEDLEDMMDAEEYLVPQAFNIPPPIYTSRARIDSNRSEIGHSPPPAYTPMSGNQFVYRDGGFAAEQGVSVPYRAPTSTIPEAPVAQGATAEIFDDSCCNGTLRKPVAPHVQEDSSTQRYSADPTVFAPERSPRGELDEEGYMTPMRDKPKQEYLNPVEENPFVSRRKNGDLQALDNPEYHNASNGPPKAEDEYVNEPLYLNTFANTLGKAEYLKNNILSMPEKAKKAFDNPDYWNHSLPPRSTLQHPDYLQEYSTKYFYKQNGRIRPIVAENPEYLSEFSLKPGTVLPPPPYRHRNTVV

[1] = target: T4, JAK3 (JH1 catalytic domain) (Homo sapiens, UniProt P52333); assay: scanMAX binding POC, JAK3; conditions: 1 μM
T4 construct: The JAK3 POC is for its JH1 catalytic domain
T4 sequence (P52333 822-1111 limits assumed): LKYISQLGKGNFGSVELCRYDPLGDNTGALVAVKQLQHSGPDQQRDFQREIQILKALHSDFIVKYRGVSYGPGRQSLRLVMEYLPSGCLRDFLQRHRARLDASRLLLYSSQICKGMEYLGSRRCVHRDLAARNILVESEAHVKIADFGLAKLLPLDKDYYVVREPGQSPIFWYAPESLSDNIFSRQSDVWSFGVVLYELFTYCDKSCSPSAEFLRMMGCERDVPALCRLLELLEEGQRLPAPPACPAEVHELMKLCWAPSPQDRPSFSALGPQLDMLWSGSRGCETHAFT

MKK7 = target: T5, MKK7 (Homo sapiens, UniProt O14733); assay: scanMAX binding POC, MKK7; conditions: 1 μM
T5 sequence (O14733 1-419): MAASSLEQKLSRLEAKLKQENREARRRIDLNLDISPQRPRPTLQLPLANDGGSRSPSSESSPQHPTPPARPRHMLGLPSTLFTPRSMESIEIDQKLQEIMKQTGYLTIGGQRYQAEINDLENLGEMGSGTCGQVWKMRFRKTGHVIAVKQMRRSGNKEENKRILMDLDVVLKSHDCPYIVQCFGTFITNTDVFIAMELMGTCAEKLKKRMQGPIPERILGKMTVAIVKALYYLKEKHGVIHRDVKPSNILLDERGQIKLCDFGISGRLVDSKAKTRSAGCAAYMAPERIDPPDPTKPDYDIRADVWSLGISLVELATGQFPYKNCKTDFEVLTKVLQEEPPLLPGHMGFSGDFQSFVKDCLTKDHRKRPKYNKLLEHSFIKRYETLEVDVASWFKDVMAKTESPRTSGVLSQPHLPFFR

BTK = conditions: cited from earlier work
JNK2 (MAPK9) = JNK2 (MAPK9) (Homo sapiens, UniProt P45984); assay: scanMAX binding POC, JNK2; conditions: 1 μM
Chain of JNK2 (MAPK9) (P45984 whole entry): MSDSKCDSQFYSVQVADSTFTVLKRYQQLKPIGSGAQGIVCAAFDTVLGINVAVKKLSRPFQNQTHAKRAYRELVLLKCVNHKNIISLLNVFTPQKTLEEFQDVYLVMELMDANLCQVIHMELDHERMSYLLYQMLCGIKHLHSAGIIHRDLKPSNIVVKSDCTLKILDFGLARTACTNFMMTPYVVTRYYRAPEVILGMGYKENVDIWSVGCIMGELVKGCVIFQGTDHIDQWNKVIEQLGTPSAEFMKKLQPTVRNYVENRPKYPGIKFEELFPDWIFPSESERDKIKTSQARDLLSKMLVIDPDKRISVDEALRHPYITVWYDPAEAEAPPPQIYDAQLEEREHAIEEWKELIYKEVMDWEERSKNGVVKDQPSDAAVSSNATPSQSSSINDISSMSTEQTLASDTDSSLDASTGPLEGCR
Procedure: The compounds were diluted directly into the assays such that the final concentration of DMSO was 0.9%. No enzyme purification steps were performed on the protein extracts before adding them to the reaction mixture, and the protein extracts were diluted 10,000-fold in the final reaction mixture (the final DNA-tagged enzyme concentration was less than 0.1 nM). Binding assay mixtures were incubated at 25 °C with shaking for 1 h. […] The concentration of wild-type or mutant BTK in the eluates was then determined using quantitative PCR. […] Each assay’s affinity ligand concentration on the magnetic beads has been optimized to ensure that the true thermodynamic Kd values for competitor molecules were measured, as described in detail previously99.
Comparison of BTK inhibitor specificity to c-Jun N-terminal kinases (JNK1-3/MAPKP8-10).
a The percent of control (POC) is the percent of kinase that was competed off its control ligand relative to the positive and negative controls at the screening concentration56. A zero POC signifies that the compound

Structure (SMILES) | TEC binding POC (TEC) | TXK binding POC (TXK) | ITK binding POC (ITK) | BLK binding POC (BLK) | EGFR binding POC (EGFR) | ERBB2 binding POC (ERBB2) | ERBB4 binding POC (ERBB4) | JAK3 binding POC [1] | MKK7 binding POC (MKK7) | MKK7 binding POC (MKK7; listed as elsubrutinib) | JNK2 (MAPK9) POC (JNK2 (MAPK9)) | IC50 (BTK) [nM]
C=CC(=O)N1CCC[C@@H](c2ccc(C(N)=O)c3[nH]ccc23)C1 [Elsubrutinib] | 18% of control | 25% of control | 94% of control | 15% of control | 90% of control | 73% of control | 91% of control | 0.15% of control | 24% of control | weak hit | 91% of control | 180
C[C@H]1CN(C2COC2)CCN1c1ccc(Nc2cc(-c3ccnc(N4CCn5c(cc6c5CC(C)(C)C6)C4=O)c3CO)cn(C)c2=O)nc1 [Fenebrutinib] | 17% of control | 53% of control | 25% of control | 60% of control | 95% of control | 97% of control | 100% of control | 95% of control | 89% of control |  | 100% of control | 2.3
O=C(c1ccc(Oc2ccccc2)cc1Cl)c1c[nH]c2ncnc(N[C@@H]3CC[C@@H](CO)OC3)c12 [Nemtabrutinib] | 7.3% of control | 2.7% of control | 86% of control | 0.3% of control | 0% of control | 0% of control | 0.35% of control | 86% of control | 39% of control |  | 100% of control | 0.85
COc1ccc(F)cc1C(=O)NCc1ccc(-c2nn([C@@H](C)C(F)(F)F)c(N)c2C(N)=O)cc1 [Pirtobrutinib] | 12% of control | 11% of control | 100% of control | 69% of control | 0.5% of control | 5.9% of control | 2% of control | 77% of control | 91% of control |  | 94% of control | 3.2

Further lines, with some results ahead:

TEC binding POC (TEC) | TXK binding POC (TXK) | ITK binding POC (ITK) | BLK binding POC (BLK) | EGFR binding POC (EGFR) | ERBB2 binding POC (ERBB2) | ERBB4 binding POC (ERBB4) | JAK3 binding POC [1] | MKK7 binding POC (MKK7) | MKK7 binding POC (MKK7; listed as elsubrutinib) | JNK2 (MAPK9) POC (JNK2 (MAPK9)) | Structure (SMILES) | IC50 (BTK) [nM]
8.5% of control | 4.4% of control | 1% of control | 0.85% of control | 1.2% of control | 8.7% of control | 0.15% of control | 0.45% of control | 100% of control |  | 100% of control | C=CC(=O)Nc1cccc(Oc2nc(Nc3ccc(N4CCN(C)CC4)cc3)nc3ccoc23)c1 [Poseltinib] | 3
8.1% of control | 4.5% of control | 51% of control | 22% of control | 49% of control | 57% of control | 17% of control | 0% of control | 79% of control |  | 8.4% of control | C=CC(=O)Nc1cccc(Nc2nc(Nc3ccc(OCCOC)cc3)ncc2F)c1 [Spebrutinib] | […]
